Test results taken from patent publication US11331328B2, “Compositions and methods for inhibiting antiapoptotic Bcl-2 proteins as anti-aging agents” (priority 2014, dated 2022).
Like-named read-outs stand apart in the source and are kept apart here. Peptide text beside a SMILES is read from it. * marks the point of attachment. Cbz = O=C(OCc1ccccc1)*

How the values were obtained:
[1] = system: non-senescent WI-38 cells (NC); assay: Cell viability (PI flow cytometry), LD50 in non-senescent WI-38 cells; assay type: cell-based, human
Description: (§1) Mouse embryonic fibroblasts (MEF) were isolated from mouse embryos as described^1. All cells were cultured in a complete medium (CM) (Dulbecco's Modified Eagle Medium supplemented with 10% fetal bovine serum [FBS], 100 U/ml penicillin, and 100 μg/ml streptomycin [all from Atlanta Biologicals, Norcross, Ga., and USA]) in a humidified incubator at 37° C. and 5% CO2. Low passages of WI-38 cells (<25), IMR-90 (<25), REC cells (<25) and MEF (<3) were used as non-senescent controls or for induction of senescence to avoid replicative senescence. […] To induce senescence by expression of oncogenic Ras (Ras^V12), WI-38 cells were infected with the retroviruses pBabe-H-Ras or pBabe-puro (control) (Addgene, Cambridge, Mass., UAS)^2, 3. […] Senescent cells were maintained in culture for a few days, changing the culture medium every 3 days until use. For in vitro cell culture experiments, we usually repeated the experiments for at least three times to ensure the reproducibility of the data. In addition, the repeats of the experiments for three times will allow us to obtain 3 independent observations for statistical analysis.
(§2) Flow cytometry: Non-senescent and senescent cells were seeded into wells of 24- or 48-well at about 70% of confluence. […] Both quiescent non-senescent cells and permanently growth arrested senescent cells were treated with vehicle (0.1% DMSO or PBS) or increasing concentrations of the compounds listed in Table 1 for various durations. […] After incubated with propidium iodide (PI 100 ng/ml) in PBS at room temperature for 1 min, cells were centrifuged at 1200 rpm for 6 min and then resuspended in PBS with 2% of FBS for analysis by a BD LSR II flow cytometer (BD Biosciences, San Jose, Calif., USA). Viable cells (PI^− cells) were numerated by flow cytometry at a constant flow rate and calculated as a percentage of control cells treated with vehicle using the formula: percentage of control=(Ndrug/NC)×100, where Ndrug and NC represent the absolute number of PI^− viable cells of drug-treated and vehicle-treated cells, respectively.
(§3) MTT (3-[4,5-dimethylthiazol-2-yl]-2,5 diphenyl tetrazolium bromide) assay: Cells were harvested, washed and resuspended in CM and added to wells of 24- or 48-well plates as described above. […] After 4 h at 37° C., the formazan was solubilized by lysing the cells with 300 μl of DMSO. Absorbance of formazan was measured at 595 nm using a Microplate Reader (BioTek, Winooski, Vt., USA). Cell viability was calculated in the method as previously described^4.
(§4) Trypan blue exclusion assay: Cells were harvested, washed and resuspended in CM and added to wells of a 6-well plate as described above. […] Living cells stained negative for trypan blue and were counted under light microscopy.
(§5) Briefly, Probit (set as y) was determined by looking up their correspondence to the % responded in Finney's table. The log of the compound concentrations was used as x. By fitting a line of regression, we produce the formula y=ax+b.

[2] = system: IR-induced senescent WI-38 cells (SC); assay: Cell viability (PI flow cytometry), LD50 in IR-induced senescent WI-38 cells; assay type: cell-based, human; conditions: for LD50 Ratio (NC/SC): non-senescent vs IR-induced senescent WI-38 cells
Description: as §1, §2, §3, §4, §5

[3] = system: senescent cells in TBI p16-3MR mice; assay: Senescent cell clearance in TBI p16-3MR mice (luminescence, p16 mRNA); assay type: in vivo, mouse; conditions: 6 Gy TBI; 2 treatment cycles
Description: ABT was given by gavage at 50 mg/kg/d for 7 d per cycle for 2 cycles with a 2-wk interval. GCV was given to the mice by ip injection at 25 mg/kg/d for 5 d per cycle for 2 cycles with a 2-wk interval. […] The mice were euthanized the day after the imaging by CO2 inhalation and followed by cervical dislocation. Tissues were harvested for immediate tissue luminescence imaging as described below or RNA extraction for analyses of p16, IL-1α, CCL-5, and CXCL-10 mRNA levels by qRT-PCR.
For in vivo luminescence, mice were injected i.p. with 250 μl of Xenolight RediJect Coelenterazine h (100 μg/mL, Calipers-PerkinElmer, Waltham, Mass., USA). The mice were anesthetized with 4% isoflurane gas at 1 L/minute oxygen flow 5 min after the injection. Luminescence images were acquired using a Xenogen IVIS-200 Optical In Vivo imaging System equipped with a Living Image Version 4.3.1 (Caliper Life Sciences, Hopkinton Mass., USA). Mice were oriented in a supine position in the scanner. […]
For tissue luminescence imaging, after harvested from euthanized mice, tissues were immediately soaked in pre-warmed (37° C.) PBS with 2% FBS and 1:10 dilution of Xenolight RediJect Coelenterazine h for 10 min. They were transferred into a new 35-mm dish and luminescence images were taken 12-15 min after soaking in the substrate solution using a Xenogen IVIS-200 Optical In Vivo imaging System. […]

[4] = system: IL-1α, TNFα, CCL-5, CXCL-10 mRNA; assay: SASP mRNA levels in lungs of TBI p16-3MR mice (qRT-PCR); assay type: in vivo, mouse; conditions: 6 Gy TBI; 2 treatment cycles
Description: To measure p21 and GAPDH mRNA levels in WI-38 cells and IL-1α, TNFα, CCL-5, and CXCL-10 mRNA levels in mouse tissues, SYBR assay kit was used (Applied biosystems in life technologies). Briefly, 1 μl cDNA was mixed with 7.5 μl SYBR Green PCR Master Mix and 0.2 μl of primers (Table 5). Samples were then added with 6.30 μl of H2O to give a total 15 μl of mixture. qPCR conditions were as follows: 95° C. for 10 min, 40×(95° C. for 15 s and 60° C. for 1 min), 95° C. for […], 95° C. for 15 min. All reactions were run in triplicate on an ABI StepOnePlus Real-Time PCR System.

[5] = system: wild-type or p16-3MR mice; conditions: at the doses used; cited from earlier work
[6] = Homo sapiens, WI-38 fibroblasts, non-senescent, LD50 by Probit Analysis, read-out: LD50 (μM) for non-senescent cells (NC)
[7] = Homo sapiens, WI-38 fibroblasts, IR-induced senescent, LD50 by Probit Analysis, read-out: LD50 (μM) for senescent cells (SC)
[8] = WI-38 fibroblasts, non-senescent, LD50 by Probit Analysis, read-out: LD50 (μM) for non-senescent cells (NC)
[9] = WI-38 fibroblasts, IR-induced senescent, LD50 by Probit Analysis, read-out: LD50 (μM) for senescent cells (SC)
[10] = Homo sapiens, WI-38, read-out: LD50 (μM) for non-senescent cells (NC)
[11] = Homo sapiens, WI-38, read-out: LD50 (μM) for senescent cells (SC)

Row | Molecule | CC50 [1, 6] | IC50 [2, 7] | LD50 Ratio (NC/SC) [2] | CC50 [1, 8] | IC50 [2, 9] | further results
1 | O=CC[C@@H](O)[C@H](O)[C@H](O)CO [2-Deoxy-D-glucose] | 4800 µM | 8890 µM | 0.5 |  |  | 
2 | O=C(O)C(=O)CBr [3-bromopyruvate] |  |  | 0.8 | 280.00 µM | 370.00 µM | 
3 | CC1(C)CCC(CN2CCN(c3ccc(C(=O)NS(=O)(=O)c4ccc(NCC5CCOCC5)c([N+](=O)[O-])c4)c(Oc4cnc5[nH]ccc5c4)c3)CC2)=C(c2ccc(Cl)cc2)C1 [ABT199] | > 10 µM | > 10 µM |  |  |  | selective killing of SCs (viable WI-38 cells, NC vs IR-SC) ([2]; 5 μM ABT199, 0.5 μM WEHI539, or both, 72 h): did not selectively kill SCs
4 | CC(=O)OC[C@H]1O[C@@H]([S-])[C@H](OC(C)=O)[C@@H](OC(C)=O)[C@@H]1OC(C)=O.CCP(CC)CC.[Au+] [Auranofin] |  |  | 1.0 | 5.13 µM | 5.34 µM | 
5 | Cc1ccc2nc(NCCN)c3ncc(C)n3c2c1 [BMS345541] | 6.87 µM | 10.8 µM | 0.6 |  |  | 
6 | CC(C)C[C@H](NC(=O)[C@H](Cc1ccccc1)NC(=O)c1cnccn1)B(O)O [Bortzomib] |  |  | 0.7 | 0.016 µM | 0.024 µM | 
7 | CCCCS(=N)(=O)CCC(N)C(=O)O (stereo not shown) [Buthionine sulfoximine] | 2340 µM | 2390 µM | 1.0 |  |  | 
8 | O=C(O)CCCCC(CCSCc1ccccc1)SCc1ccccc1 (stereo not shown) [CPI-613] | 223 µM | 205 µM | 1.1 |  |  | 
9 | CCCCCCCCCC[P+](c1ccccc1)(c1ccccc1)c1ccccc1 [Decyl-triphenylphosphonium] |  |  | 1.4 |  |  | CC50 [1, 10]: 1.41 µM; IC50 [2, 11]: 0.98 µM
10 | C[C@]12CC[C@H](O)CC1=CC[C@@H]1[C@@H]2CC[C@]2(C)C(=O)CC[C@@H]12 [Dehydroepiandrosterone] | 296 µM | 510 µM | 0.6 |  |  | 
11 | CNCCCN1c2ccccc2CCc2ccccc21 [Despramine] |  |  | 1.0 | 50.03 µM | 51.13 µM | 
12 | CS[C@H]1SC[C@H]2C(=O)N(C)[C@@H](C(C)C)C(=O)OC[C@@H](NC(=O)c3cnc4ccccc4n3)C(=O)N[C@@H](C)C(=O)N(C)[C@@H]1C(=O)N(C)[C@@H](C(C)C)C(=O)OC[C@@H](NC(=O)c1cnc3ccccc3n1)C(=O)N[C@@H](C)C(=O)N2C [Echinomycin] |  |  | 0.2 |  |  | CC50 [1, 10]: 0.42 µM; IC50 [2, 11]: 2.86 µM
13 | Nc1nc(O)c2ncn(COC(CO)CO)c2n1 [GCV, ganciclovir] |  |  |  |  |  | SCs in lungs (luminescence, p16 mRNA) [3]: reduced IR-induced SCs; SASP in lungs [4]: suppressed the SASP induced by TBI; toxicity to mice [5]: non-toxic to wild-type or p16-3MR mice
14 | OO [Hydrogen peroxide] | 135 µM | 231 µM | 0.58 |  |  | 
15 | C=CCNc1c(O)cc2c(O)c1C[C@@H](C)C[C@H](OC)[C@H](O)[C@@H](C)/C=C(\C)[C@H](OC(N)=O)[C@@H](OC)/C=C\C=C(/C)C(=O)N2 [IPI-504] |  |  | 0.2 |  |  | CC50 [1, 10]: 0.14 µM; IC50 [2, 11]: 0.93 µM
16 | O=c1cc(-c2cccc3c2Sc2ccccc2S3)oc(N2CCOCC2)c1 [KU55933] | 5.1 µM | 30.7 µM | 0.2 |  |  | 
17 | CC(C)C[C@@H](C=O)NC(=O)[C@H](CC(C)C)NC(=O)[C@H](CC(C)C)NC(=O)OCc1ccccc1 [MG132] (Cbz-Leu-Leu-Leu-aldehyde) |  |  | 0.1 |  |  | CC50 [1, 10]: 0.24 µM; IC50 [2, 11]: 1.92 µM

Row | Molecule | CC50 [1, 6] | IC50 [2, 7] | LD50 Ratio (NC/SC) [2] | CC50 [1, 8] | IC50 [2, 9] | further results
18 | Cc1csc(=NC2CCCCC2)n1/N=C/c1ccc(O)c(O)c1O [MIM1] |  |  | 1.0 | >50.00 µM | >50.00 µM | 
19 | O=c1cc(N2CCOCC2)oc2c1ccc1ccccc12 [NU7026] |  |  | 0.7 | 47.02 µM | 64.03 µM | 
20 | COc1ccc(C2=N[C@@H](c3ccc(Cl)cc3)[C@@H](c3ccc(Cl)cc3)N2C(=O)N2CCNC(=O)C2)c(OC(C)C)c1 [Nutlin3] |  |  | 0.1 | 5.62 µM | 82.16 µM | 
21 | S=C=NCCc1ccccc1 [Phenethyl isothiocyanate (PEITC), Phenethyl isothiocyanate] | < 10 µM | > 10 µM | <1.0 |  |  | 
22 | CC1=CC(=O)c2c(O)cccc2C1=O [Plumbagin] | 12.6 µM | 8.7 µM | 1.5 |  |  | 
23 | CCCCCCCCCCCCC/C=C/[C@@H](O)[C@@H](N)CO[C@@H]1O[C@H](CO)[C@H](O)[C@H](O)[C@H]1O [Psychosine] |  |  | 0.9 | 46.32 µM | 52.25 µM | 
24 | CO[C@H]1C[C@@H]2CC[C@@H](C)[C@@](O)(O2)C(=O)C(=O)N2CCCC[C@H]2C(=O)O[C@H]([C@H](C)C[C@@H]2CC[C@@H](O)[C@H](OC)C2)CC(=O)[C@H](C)/C=C(\C)[C@@H](O)[C@@H](OC)C(=O)[C@H](C)C[C@H](C)/C=C/C=C/C=C/1C [Rapamycin] |  |  | 1.0 |  |  | CC50 [1, 10]: > 0.04 µM; IC50 [2, 11]: > 0.04 µM
25 | Oc1ccc(-c2nc(-c3ccncc3)c(-c3ccc(F)cc3)[nH]2)cc1 [SB202190] | > 800 µM | > 800 µM |  |  |  | 
26 | NCCCNCCCCNCCCN [Spermine] | > 40 µM | > 40 µM |  |  |  | 
27 | CC(C)(C)c1ccc(C(O)CCCN2CCC(C(O)(c3ccccc3)c3ccccc3)CC2)cc1 (stereo not shown) [Terfenadine] | 6.13 µM | 6.87 µM | 0.9 |  |  | 
28 | CC(/C=C/C(=O)NO)=C\[C@@H](C)C(=O)c1ccc(N(C)C)cc1 [Trichostatin A(TSA), Trichostatin A] |  |  | 1.87 | 0.72 µM | 0.39 µM | 
29 | O=C(CCCCCCC(=O)Nc1ccccc1)NO [Vorinostat(SAHA), Vorinostat] | 0.85 µM | 2.21 µM | 0.38 |  |  | 
30 | COc1c(O)cc(O)c2c(=O)cc(-c3ccccc3)oc12 [Wogonin] |  |  | 1.0 |  |  | CC50 [1, 10]: > 200 µM; IC50 [2, 11]: > 200 µM
31 | COCCn1c2c([n+](Cc3cnccn3)c1C)C(=O)c1ccccc1C2=O [YM-155] | 78.4 µM | 50 µM | 1.6 |  |  | 
32 | Arsenic trioxide |  |  | 0.9 | 15.65 µM | 18.26 µM | 
33 | Balifomycin A1 |  |  | 1.3 | 29.71 µM | 22.11 µM | 
